The values below are quoted from earlier work in US8227637B2, “Stable, water-soluble near infrared dyes” (Epolin, Inc., priority 2008, dated 2012).

For this series the following is noted: SbF6 salt of U.S. Pat. No. 3,709,830, statement in background.

For `OCCN(CCO)c1ccc([N+](=C2C=CC(=[N+](c3ccc(N(CCO)CCO)cc3)c3ccc(N(CCO)CCO)cc3)C=C2)c2ccc(N(CCO)CCO)cc2)cc1.[F][Sb-]([F])([F])([F])([F])[F].[F][Sb-]([F])([F])([F])([F])[F]` [N,N′,N″,N′″-tetrakis(4-[di(2-hydroxyethyl)amino]-phenyl)-p-benzoquinonebis(imoniumhexafluoro-antimonate)], the water solubility entry is “not water-soluble”.
